The subject of data set [1] is TLR ligands. The experiment in a line: Mechanistic studies: responses to TLR ligands. The conditions noted are these: TLR ligands including neoseptin-3. The format is cell-based.
Data set [2] can be described thus: Overt toxicity when used as an adjuvant at maximum doses. Format: in vivo. Conditions: maximum doses capable of administration, compared with LPS.
For data set [3], the system named is mouse macrophages. The experiment in a line: TNF-α production in macrophages from mice with germline mutations or knockouts of TLR and signaling genes. The format is cell-based. The text has this:
Induced TNF-α production was established with the use of macrophages from mice bearing germline genetic defects or knockouts of each of the genes encoding the TLRs or their downstream signaling molecules uniquely available in the laboratories of Professor Bruce Beutler, (University of Texas Southwestern Medical Center, Dallas, Tex.). See, (a) mutagenetix.utsouthwestern.edu.; (b) Arnold et al., (2012) ENU-induced phenovariance in mice: Inferences from 587 mutations. BMC Res. Notes. 5, 577-0500-5-577.

Data set [4] has as its target T1, Cyld (Homo sapiens, UniProt Q9NQC7).
T1 sequence (Q9NQC7 1-956): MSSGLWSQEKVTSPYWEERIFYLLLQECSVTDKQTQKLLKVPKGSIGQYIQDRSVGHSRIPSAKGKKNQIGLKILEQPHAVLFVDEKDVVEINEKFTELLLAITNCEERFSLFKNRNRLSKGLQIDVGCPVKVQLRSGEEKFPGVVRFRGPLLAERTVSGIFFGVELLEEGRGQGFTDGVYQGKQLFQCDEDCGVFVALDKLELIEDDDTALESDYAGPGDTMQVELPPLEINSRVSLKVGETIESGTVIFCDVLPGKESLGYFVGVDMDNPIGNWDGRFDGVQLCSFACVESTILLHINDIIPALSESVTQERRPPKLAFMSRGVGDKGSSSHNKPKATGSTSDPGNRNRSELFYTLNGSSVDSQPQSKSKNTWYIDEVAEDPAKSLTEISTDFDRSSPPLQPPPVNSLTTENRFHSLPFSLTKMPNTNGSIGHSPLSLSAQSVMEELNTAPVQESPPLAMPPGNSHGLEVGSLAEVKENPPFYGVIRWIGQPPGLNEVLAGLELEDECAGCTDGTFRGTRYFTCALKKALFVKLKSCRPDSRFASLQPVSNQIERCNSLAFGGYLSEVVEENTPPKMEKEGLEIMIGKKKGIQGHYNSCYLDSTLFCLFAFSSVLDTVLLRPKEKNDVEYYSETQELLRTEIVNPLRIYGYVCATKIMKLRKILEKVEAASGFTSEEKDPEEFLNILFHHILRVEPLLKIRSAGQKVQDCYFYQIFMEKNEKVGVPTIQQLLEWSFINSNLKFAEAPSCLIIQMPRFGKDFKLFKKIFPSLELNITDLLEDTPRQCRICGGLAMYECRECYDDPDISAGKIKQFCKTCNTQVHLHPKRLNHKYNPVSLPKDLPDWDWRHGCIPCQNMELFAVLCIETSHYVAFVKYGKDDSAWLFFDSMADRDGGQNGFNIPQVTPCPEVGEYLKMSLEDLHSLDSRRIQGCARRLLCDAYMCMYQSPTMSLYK
The experiment in a line: In vitro assay of Cyld activity. The format is biochemical.

In data set [5] the test system is THP-1 cells. The experiment in a line: TNF-α production upon compound treatment of THP-1 cells. Conditions: FIG. 2. Format: cell-based.
Data set [6] concerns C57BL/6J mice. The experiment in a line: Adjuvant effect with ovalbumin, intramuscular immunization, serum OVA-specific IgG by ELISA. The format is in vivo, mouse. How it is done: In FIG. 3, adjuvants were mixed with ovalbumin (OVA, 100 μg) and injected intramuscularly into C57BL/6J mice at the indicated doses. Two immunizations were administered with a booster given at 7 days.
FIG. 4 provides a series of graphs that show anti-olvalbumin titers at 14 days post immunization using adjuvants with ovalbumin (OVA, 100 μg) and injected intramuscularly into C57BL/6J mice. The adjuvants used were Compound 125-03, neoseptin-3 (below), LPS, MPLA (monophosphoryl lipid A from […]
For orientation: An ELISA detects its analyte on a solid surface through an enzyme-linked reagent.

Data set [7] concerns the target T2, TLR4 (Mus musculus, UniProt Q9JHF9+Q9QUK6).
T2 construct: measuring the stimulated TNF-alpha release in mouse macrophages; endogenous in cells; host or cells: mouse macrophages
T2 sequence (Q9QUK6 26-835): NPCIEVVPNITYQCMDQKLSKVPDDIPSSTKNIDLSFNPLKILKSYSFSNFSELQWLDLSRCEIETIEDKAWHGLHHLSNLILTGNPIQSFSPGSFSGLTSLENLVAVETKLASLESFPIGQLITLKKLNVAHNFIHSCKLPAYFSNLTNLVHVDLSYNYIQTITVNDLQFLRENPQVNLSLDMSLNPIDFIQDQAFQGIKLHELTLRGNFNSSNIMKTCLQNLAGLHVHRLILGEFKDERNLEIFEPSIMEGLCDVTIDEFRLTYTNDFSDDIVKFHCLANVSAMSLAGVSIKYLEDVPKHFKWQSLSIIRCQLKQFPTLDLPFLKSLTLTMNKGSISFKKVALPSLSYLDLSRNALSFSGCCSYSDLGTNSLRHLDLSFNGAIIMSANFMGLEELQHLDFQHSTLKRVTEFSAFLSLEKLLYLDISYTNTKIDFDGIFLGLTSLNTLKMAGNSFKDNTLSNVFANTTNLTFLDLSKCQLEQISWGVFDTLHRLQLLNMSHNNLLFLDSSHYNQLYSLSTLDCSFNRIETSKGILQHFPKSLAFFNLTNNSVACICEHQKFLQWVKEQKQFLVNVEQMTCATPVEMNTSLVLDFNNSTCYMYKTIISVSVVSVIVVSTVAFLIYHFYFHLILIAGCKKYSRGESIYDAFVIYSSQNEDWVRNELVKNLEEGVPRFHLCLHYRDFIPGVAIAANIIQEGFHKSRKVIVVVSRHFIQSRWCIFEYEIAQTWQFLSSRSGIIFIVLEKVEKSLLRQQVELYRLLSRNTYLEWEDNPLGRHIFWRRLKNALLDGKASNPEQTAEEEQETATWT
T2 sequence (Q9JHF9 19-160): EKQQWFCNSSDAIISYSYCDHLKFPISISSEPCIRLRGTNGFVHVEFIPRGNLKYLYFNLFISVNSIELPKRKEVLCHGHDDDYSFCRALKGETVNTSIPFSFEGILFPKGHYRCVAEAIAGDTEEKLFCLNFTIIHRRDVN
The experiment in a line: TLR4 agonist activity, stimulated TNF-alpha release in mouse macrophages. Format: cell-based. Conditions: for TLR4 agonist efficacy: relative to neoseptin-1 or LPS. The text has this:
In efforts to improve the TLR4 agonist activity of an initial screening lead, neoseptin-1 (below), measuring the stimulated TNF-alpha release in mouse macrophages, Compound 125-03, used herein as illustrative of the contemplated compounds, emerged as a key compound capable of stimulating the immune response (below). […] [TLRs […] have been lost from the mouse genome, and TLRs 11, 12 and 13 have been lost from the human genome. Beutler, Blood, 113:1399-1407 (2009).]

Here are results for three compounds from patent US20170224653A1, “TLR-INDEPENDENT SMALL MOLECULE ADJUVANTS” (The Scripps Research Institute, priority 2014, published 2017).

Take `O=C(NCCCc1ccccc1)c1ccc(NC(=O)c2cc3ccccc3o2)c(OCCc2ccc(O)cc2)c1` [Compound 125-03, N-(2-(4-Hydroxyphenethoxy)-4-((3-phenylpropyl)-carbamoyl)phenyl)benzofuran-2-carboxamide]: the “effect on responses to TLR ligands” value in data set [1] was “markedly increased responses to TLR ligands”. Further, the overt toxicity result in data set [2] is “did not display the overt toxicity”. In addition, in data set [3] (macrophages from mice with disabling mutations or knockouts of TLR genes, FIG. 1), the “TLR dependence of stimulated TNF-alpha production” value was “independent of the TLRs including TLR4/MD-2”. The “stimulating the release of TNF-alpha in mouse macrophages” value in data set [3] (mouse macrophages) was “active”. In addition, the “effect on Cyld activity” value in data set [4] is given as “directly inhibits Cyld activity”. In addition, the “release of TNF-alpha from differentiated human THP-1 cells” value in data set [5] was “dose dependent activity”. Further, the “adjuvant activity, serum OVA-specific IgG” value in data set [6] (OVA 100 μg, intramuscular, booster at 7 days, day 35 post-immunization, FIG. 3) is given as “robust, dose-dependent adjuvant activity”. Besides, in data set [6] (anti-ovalbumin titers, 14 days post immunization, concentrations used, FIG. 4), the “adjuvant activity compared with alum” value is reported as “more effective than alum”.

Regarding `N[C@@H](Cc1ccccc1)C(=O)Nc1ccc(C(=O)N[C@@H](CCc2ccccc2)C(=O)O)cc1CCc1ccc(O)cc1` [MM-1-88], in data set [7], the TLR4 agonist efficacy entry is reported as “significant enhancement in TLR4 agonist efficacy”.

As to `CC(C)(C)OC(=O)[C@H](CCc1ccccc1)NC(=O)c1ccc(N)c(CCc2ccc(O)cc2)c1` [neoseptin-3, reference compound], in data set [7], the TLR4 agonism result is listed as “TLR4-agonist” and the TLR4 agonist efficacy entry is recorded as “nearly matching the efficacy of LPS”. The “release of TNF-alpha from differentiated human THP-1 cells” value in data set [5] is “not active in human cells”. For the same compound, the “concentration needed for an antibody response similar to Compound 125-03” value in data set [6] (at fourteen days) was “about twice the concentration”.
